Like-named read-outs stand apart in the source and are kept apart here.
Tests used:
Assay type in all cases: cell-based
[1] = molecular target: Ba/F3-FGFR3-transfected cells (Homo sapiens, UniProt P22607); experiment: Ba/F3-FGFR3 (minus IL3) cellular proliferation assay, Alamar Blue; conditions: for BAF3-FGFR 3 (MIN IL3) 384 well pIC50: minus IL3, 384 well; for BAF3-FGFR 3 (MIN IL3) 96 well pIC50: minus IL3, 96 well
Description: Ba/F3-FGFR3 (Minus IL3 or Plus IL3) (Cellular Proliferation Assay)
Cells were put in an incubator at 37° C. and 5% CO2. After 24 hours, 10 μl of Alamar Blue solution (0.5 mM K3Fe(CN)6, 0.5 mM KaFe(CN)6, 0.15 mM Resazurin and 100 mM Phosphate Buffer) was added to the wells, incubated for 4 hours at 37° C. and 5% CO2 before RFU's (Relative Fluorescence Units) (ex. 540 nm., em. 590 nm.) were measured in a flurorescence plate reader. […]
(§1) In a 96 well plate, 180 μl cell culture medium (phenol red free RPMI-1640, 10% FBS, 2 mM L-Glutamine and 50 μg/ml Gentamycin) containing 10000 cells per well of Ba/F3-FGFR3-transfected cells were pipette and 20 μl of compound dilution in DMSO was added. Cells were put in an incubator at 37° C. and 5% CO2. After 24 hours, 40 μl of Alamar Blue solution (0.5 mM K3Fe(CN)6, 0.5 mM KaFe(CN)6, 0.15 mM Resazurin and 100 mM Phosphate Buffer) was added to the wells, incubated for 4 hours at 37° C. and 5% CO2 before RFU's (Relative Fluorescence Units) (ex. 540 nm., em. 590 nm.) were measured in a flurorescence plate reader.

[2] = molecular target: Ba/F3-FGFR4-transfected cells (Homo sapiens, UniProt P22455); experiment: Ba/F3-FGFR4 cellular proliferation assay, Alamar Blue
Ba/F3-FGFR4-transfected cells, sequence (P22455 whole entry, change not shown): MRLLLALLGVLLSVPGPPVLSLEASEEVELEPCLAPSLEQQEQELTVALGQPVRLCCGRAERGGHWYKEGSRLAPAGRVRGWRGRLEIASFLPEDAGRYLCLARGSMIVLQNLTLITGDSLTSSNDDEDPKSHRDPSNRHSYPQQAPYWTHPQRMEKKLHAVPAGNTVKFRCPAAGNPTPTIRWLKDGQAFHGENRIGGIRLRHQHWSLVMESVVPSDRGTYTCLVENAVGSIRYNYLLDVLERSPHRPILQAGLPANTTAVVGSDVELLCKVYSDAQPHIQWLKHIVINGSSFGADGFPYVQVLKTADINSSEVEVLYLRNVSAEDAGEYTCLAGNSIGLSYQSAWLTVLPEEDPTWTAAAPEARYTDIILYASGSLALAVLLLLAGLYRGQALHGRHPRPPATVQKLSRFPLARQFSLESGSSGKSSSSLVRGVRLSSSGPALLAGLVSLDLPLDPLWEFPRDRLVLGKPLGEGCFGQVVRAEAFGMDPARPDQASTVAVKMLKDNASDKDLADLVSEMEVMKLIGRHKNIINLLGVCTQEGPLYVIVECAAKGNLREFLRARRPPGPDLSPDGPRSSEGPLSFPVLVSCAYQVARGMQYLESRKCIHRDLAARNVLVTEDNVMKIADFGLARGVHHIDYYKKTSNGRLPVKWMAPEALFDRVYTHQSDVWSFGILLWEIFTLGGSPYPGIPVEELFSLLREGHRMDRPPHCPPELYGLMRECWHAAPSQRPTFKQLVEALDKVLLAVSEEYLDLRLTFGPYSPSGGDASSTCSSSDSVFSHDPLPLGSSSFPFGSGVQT
Description: Ba/F3-FGFR4 (Cellular Proliferation Assay)
as §1, with “a 384” for “a 96”, “plate, 100 nl of compound dilution in DMSO was sprayed before adding 50” for “plate, 180”, “containing 20000” for “containing 10000”, “of Ba/F3-FGFR4-transfected cells.” for “of Ba/F3-FGFR3-transfected cells were pipette and 20 μl of compound dilution in DMSO was added.”, “hours, 10” for “hours, 40”

[3] = system: Ba/F3-Flt3-transfected cells in the presence of 10 ng/ml murine IL3; experiment: Ba/F3-Flt3 (plus IL3) cellular proliferation counterscreen, Alamar Blue; conditions: Mus musculus, read-out: BAF3-FLT3 (PLUS IL3) 384 well pIC50 (converted)
Description: Ba/F3-Flt3 (Minus IL3 or Plus IL3) (Cellular Proliferation Assay)
as §1, with “a 384” for “a 96”, “plate, 100 nl of compound dilution in DMSO was sprayed before adding 50” for “plate, 180”, “containing 20000” for “containing 10000”, “of Ba/F3-Flt3-transfected cells.” for “of Ba/F3-FGFR3-transfected cells were pipette and 20 μl of compound dilution in DMSO was added.”, “hours, 10” for “hours, 40”
As a counterscreen the same experiment was performed in the presence of 10 ng/ml murine IL3.
as §1, with “Ba/F3-Flt3-transfected” for “Ba/F3-FGFR3-transfected”

Ba/F3-FGFR3-transfected cells, sequence (P22607 whole entry, change not shown): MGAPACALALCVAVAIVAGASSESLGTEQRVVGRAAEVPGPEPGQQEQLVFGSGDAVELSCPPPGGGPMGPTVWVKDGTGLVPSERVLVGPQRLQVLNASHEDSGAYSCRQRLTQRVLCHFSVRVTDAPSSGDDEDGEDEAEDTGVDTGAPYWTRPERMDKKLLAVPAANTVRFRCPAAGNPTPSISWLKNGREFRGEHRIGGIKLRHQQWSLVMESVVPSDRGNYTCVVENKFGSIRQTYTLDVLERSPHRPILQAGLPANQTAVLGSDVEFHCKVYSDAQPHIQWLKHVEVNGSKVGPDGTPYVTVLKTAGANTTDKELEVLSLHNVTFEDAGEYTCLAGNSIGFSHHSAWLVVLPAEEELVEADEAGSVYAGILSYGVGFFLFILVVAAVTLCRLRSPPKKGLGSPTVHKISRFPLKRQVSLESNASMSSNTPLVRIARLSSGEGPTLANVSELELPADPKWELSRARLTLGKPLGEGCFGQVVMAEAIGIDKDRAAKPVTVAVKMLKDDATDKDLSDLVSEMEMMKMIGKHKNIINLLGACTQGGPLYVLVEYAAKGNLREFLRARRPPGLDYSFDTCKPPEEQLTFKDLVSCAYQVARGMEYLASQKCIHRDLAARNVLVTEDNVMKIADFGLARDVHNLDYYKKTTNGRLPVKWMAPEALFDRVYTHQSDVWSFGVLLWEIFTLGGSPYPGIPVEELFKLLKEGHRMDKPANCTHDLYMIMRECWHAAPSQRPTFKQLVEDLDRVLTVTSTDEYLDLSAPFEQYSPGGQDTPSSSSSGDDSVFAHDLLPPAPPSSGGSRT

BAF3-FGFR 3 (MIN IL3) 384 well pIC50 [1]	BAF3-FGFR4 pIC50 [2]	BAF3-FGFR 3 (MIN IL3) 96 well pIC50 [1]	BAF3-FGFR4 pIC50 ([2]; 384 well)	SMILES	IC50 ([3]; plus 10 ng/ml murine IL3) [µM]	IC50 ([3]; plus IL3, 384 well) [µM]
<5	<5	<5	–	COc1cc(OC)cc(N(CC2CC2)c2ccc3ncc(-c4cccc(N5CCOCC5)c4)nc3c2)c1 [Compound 92]	–	–
<5	<5	<5	–	COc1cc(OC)cc(N(CC2CC2)c2ccc3ncc(C(=O)N4CCC4)nc3c2)c1 [Compound 93]	> 10	–
<5	<5	<5	–	COc1cc(OC)cc(N(CC2CC2)c2ccc3ncc(-n4cccn4)nc3c2)c1 [Compound 95]	–	–
5.2	5.0	–	–	COc1cc(OC)cc(N(CCCO)c2ccc3ncc(-c4ccnc(C(=O)NCCCCCN)c4)nc3c2)c1 [Compound 130]	> 10	–
6.08	6.0	–	–	COc1cc(OC)cc(N(CCCNC(C)C)c2ccc3ncc(-c4ccnc(NC(=O)NC(C)C)c4)nc3c2)c1 [Compound 131]	3.63	–
5.57	5.6	–	–	COc1cc(OC)cc(N(CCCNCCCO)c2ccc3ncc(-c4ccnc(C(=O)NCCCCN)c4)nc3c2)c1 [Compound 132]	~5.5	–
<5	<5	–	–	COc1cc(OC)cc(N(CCCO)c2ccc3ncc(-c4ccnc(-c5ccnc(Cl)c5)c4)nc3c2)c1 [Compound 133]	> 10	–
6.3	6.1	–	–	COc1cc(OC)cc(N(CCCO)c2ccc3ncc(-c4cnc(N5CCN(C)CC5)c(C)c4)nc3c2)c1 [Compound 135]	–	–
~5.83	6.1	–	–	COc1cc(OC)cc(N(CCCNC(C)C)c2ccc3ncc(-c4ccnc(NC(=O)OC(C)(C)C)c4)nc3c2)c1 [Compound 137]	–	–
5.04	5.1	–	–	COc1cc(OC)cc(N(CCO)c2ccc3ncc(-c4ccnc(C(=O)NCCCCCN)c4)nc3c2)c1 [Compound 138]	–	–

Second part, the molecule before the results:

SMILES	BAF3-FGFR 3 (MIN IL3) 384 well pIC50 [1]	BAF3-FGFR4 pIC50 [2]	BAF3-FGFR 3 (MIN IL3) 96 well pIC50 [1]	BAF3-FGFR4 pIC50 ([2]; 384 well)	IC50 ([3]; plus 10 ng/ml murine IL3) [µM]	IC50 ([3]; plus IL3, 384 well) [µM]
COCC(CN(c1cc(OC)cc(OC)c1)c1ccc2ncc(-c3cccnc3)nc2c1)OC(C)=O (single isomer, unassigned) [Compound 52]	~6.17	5.2	–	–	> 10	–
COc1cc(OC)cc(N(CC#Cc2ncccn2)c2ccc3ncc(-c4cccnc4)nc3c2)c1 [Compound 2]	7.13	6.9	–	–	> 10	–
COc1cc(OC)cc(N(CCCNCC(F)(F)F)c2ccc3ncc(-c4ccn(C)c4)nc3c2)c1 [Compound 5]	6.57	5.7	–	–	> 10	–
COc1cc(OC)cc(N(CCO)c2ccc3ncc(-c4ccc(N5CCOCC5)nc4)nc3c2)c1 [Compound 19]	6.17	6.1	–	–	> 10	–
COc1cc(OC)cc(N(CC2CC2)c2ccc3ncc(C#Cc4cncn4C)nc3c2)c1 [Compound 22]	<5.52	–	5.04	<5	–	> 10
COc1cc(OC)cc(N(CC2CC2)c2ccc3ncc(C(=O)Nc4cncn4C)nc3c2)c1 [Compound 27]	<5	<5	<5	–	> 10	–
COc1cc(OC)cc(N(CC2CC2)c2ccc3ncc(-c4ccnc(N5CCN(C)CC5)c4)nc3c2)c1 [Compound 37]	~5.26	–	5.77	5.3	–	7.94
COc1cc(OC)cc(N(CCO)c2ccc3ncc(-n4cnc(CO)c4)nc3c2)c1 [Compound 38]	6.23	5.8	–	–	> 10	–
COc1cc(OC)cc(N(CCCO)c2ccc3ncc(-c4ccnc(C(=O)N5CCOCC5)c4)nc3c2)c1 [Compound 43]	6.25	6.0	–	–	> 10	–
COc1cc(OC)cc(N(CCCNCC(=O)O)c2ccc3ncc(-c4ccnc(C(=O)NCCCCN)c4)nc3c2)c1 [Compound 44]	<5	<5.35	–	–	> 10	–
COc1cc(OC)cc(N(CC2CC2)c2ccc3ncc(N4CCN(CCO)CC4)nc3c2)c1 [Compound 49]	<5	<5	5.5	–	> 10	–
COc1cc(OC)cc(N(CCN2CCNCC2)c2ccc3ncc(-c4ccc(N)nc4)nc3c2)c1 [Compound 59]	5.9	6.1	–	–	> 10	–
COc1cc(OC)cc(N(CC2CC2)c2ccc3ncc(N4CCN(C)CC4)nc3c2)c1 [Compound 64]	<5	–	5.02	<5	–	> 10
COc1cc(OC)cc(N(CCO)c2ccc3ncc(N4CCC(CN)CC4)nc3c2)c1 [Compound 84]	<5	<5	–	–	–	–
COc1cc(OC)cc(N(CC2CC2)c2ccc3ncc(-c4nnc(C)o4)nc3c2)c1 [Compound 85]	<5	–	5.06	<5	–	–
COc1cc(OC)cc(N(CC2CC2)c2ccc3ncc(-c4ccc5[nH]ccc5c4)nc3c2)c1 [Compound 86]	<5	–	5.4	<5	–	–
COc1cc(OC)cc(N(CC2CC2)c2ccc3ncc(-c4ccc5c(c4)OCO5)nc3c2)c1 [Compound 87]	<5.4	–	–	<5	–	–
COc1cc(OC)cc(N(CC2CC2)c2ccc3ncc(-c4cnc5[nH]ccc5c4)nc3c2)c1 [Compound 88]	<5	–	<5	<5	–	–

Source: patent US10052320B2, “Substituted quinoxalines as FGFR kinase inhibitors” (ASTEX THERAPEUTICS LIMITED, priority 2011, dated 2018)
